Measurements reported in patent publication US20190117655A1, “Treatment of Biliary Duct Cancer” (ASLAN Pharmaceuticals PTE LTD, priority 2015, published 2019).
Where two headings read alike, the source gives them in different places.

Columns and labels:
[1] = Combination of Varlitinib and Herceptin versus either alone; settings: Varlitinib in combination with Herceptin (trastuzumab)
Text: In one embodiment the compound of formula (I), such as Varlitinib, is employed in combination with at least one further HER inhibitor, for example a combination of Varlitinib and Herceptin (trastuzumab) and/or pertuzumab.

cholangiocarcinoma = assay: Second line monotherapy trial in cholangiocarcinoma patients, CA19-9 marker; type: in vivo, human
Text: CA19-9 is a marker employed in the management of cholangiocarcinoma.

[2] = test system: stage IV cholangiocarcinoma; assay: Example 1: person, stage IV EGFR positive cholangiocarcinoma, Varlitinib monotherapy; type: in vivo, human
[3] = test system: extra-hepatic cholangiocarcinoma; assay: Example 2: person, stage IV extra-hepatic cholangiocarcinoma, Varlitinib with cisplatin/capecitabine then monotherapy; type: in vivo, human
Protocol: A person, stage IV, extra-hepatic cholangiocarcinoma, prior treatment: • Whipple • Radiotherapy • Gemzar/cisplatin for 6 months For the first 6 cycles, the patient received Varlitinib 400 mg BID continuously with cisplatin (80 mg/m^2 every 3 weeks) and capecitabine (1000 mg/m2 BID, 2 weeks on, 1 week off). […] In summary, the patient received varlitinib with chemo for 6 cycles and varlitinib monotherapy for another 4 cycles (3 weeks per cycle).

[4] = test system: stage IV cholangiocarcinoma; assay: Example 3: person, stage IV cholangiocarcinoma, Varlitinib with cisplatin/capecitabine; type: in vivo, human; settings: Varlitinib 400 mg bi-daily, cisplatin and capecitabine
Protocol: A person with stage IV cholangiocarcinoma (3 lesions) had progressive disease following treatment with: • radiotherapy, and • gemcitabine (Gemzar®) and cisplatin—6 months. […] The cisplatin and capecitabine regime was cisplatin 80 mg/m^2 IV infusion and capecitabine 1000 mg/m^2 orally twice daily for 14 days every 3 weeks.

[5] = test system: stage IV cholangiocarcinoma; assay: Example 4: person, stage IV cholangiocarcinoma, Varlitinib 500 mg with cisplatin/capecitabine; type: in vivo, human; settings: after treatment cycle 2; Varlitinib 500 mg bi-daily, cisplatin and capecitabine
Protocol: A person with stage IV cholangiocarcinoma had progressive disease following treatment with radiotherapy and bi-weekly 5-FU. […] The cisplatin and capecitabine regime was cisplatin 80 mg/m^2 IV infusion and capecitabine 1000 mg/m^2 orally twice daily for 14 days every 3 weeks.

[6] = test system: stage IV cholangiocarcinoma and metastatic lymphadenopathy; assay: Example 5: person, stage IV cholangiocarcinoma and metastatic lymphadenopathy, Varlitinib with cisplatin/5-FU; type: in vivo, human; settings: 300 mg BID Varlitinib with cisplatin/5-FU
Protocol: A person was diagnosed with stage IV cholangiocarcinoma and metastatic lymphadenopathy in January 2016. No prior surgery or treatment was given before initiating first line treatment of 300 mg BID Varlitinib combined with […]/5-FU, 28-day treatment cycle. Date of the first response 5 Mar. 2016, tumor C2 was reduced by 16%. Last response tumor C4 was reduced by 13% (17 May 2016).

[7] = test system: intrahepatic bile duct cholangiocarcinoma; assay: Example 6: person, intrahepatic bile duct cholangiocarcinoma, Varlitinib with FOLFOX then monotherapy; type: in vivo, human; settings: 9 cycles Varlitinib 400 mg reduced to 300 mg BID with FOLFOX, then 7 cycles monotherapy
Protocol: A person diagnosed in 2013 with intrahepatic bile duct cholangiocarcinoma, had received surgery in the form of left hemihepatectomy in 15 Jul. 2013. Prior therapies were gemcitabine and cisplatin (in the period 14 Aug. 2013 to 8 Jan. 2014) and repeated between 13 May 2015 and 1 Jul. 2015. With this treatment the status was progressive disease. The patient was given 9 cycles of a combination of Varlitinib 400 mg reduced to 300 mg BID and FOLFOX. This was followed with 7 cycles of Varlitinib monotherapy.

[8] = test system: stage IV cholangiocarcinoma; assay: Example 7: person, stage IV cholangiocarcinoma, Varlitinib with cisplatin/5-FU then monotherapy; type: in vivo, human
Protocol: A person with stage IV cholangiocarcinoma newly diagnosed in 2014 received surgery (percutaneous […] cholangial drainage and transcatheter […] embolization), followed by adjuvant treatment of Varlitinib 400 mg BID combined with cisplatin s/5-FU 28-day cycle. After cycle 6 (14 Jul. 2015), only 400 mg BID Varlitinib was taken. Patient completed 10 cycles of monotherapy. At Cycle 11 Day 1, dose was reduced to 300 mg BID alternate days. […] 2015. Progressive disease observed in cycle 16 of monotherapy 12 Apr. 2016.

[9] = test system: intrahepatic cholangiocarcinoma, stage IV; assay: Example 8: person, stage IV intrahepatic cholangiocarcinoma, Varlitinib with mFOLFOX6 then monotherapy (ASLAN001-002SG); type: in vivo, human; settings: after cycle 18
Text: They received left hemihepatectomy followed by 6 cycles of adjuvant gemcitabine and cisplatin.

[10] = test system: advanced or metastatic biliary tract cancer; assay: Example 10: Phase 2A single arm study of varlitinib plus capecitabine in Chinese patients (NCT03231176); type: in vivo, human; settings: Varlitinib 300 mg BID plus capecitabine 1000 mg/m^2 BID 2 weeks on, 1 week off; ongoing study
Protocol: This study is to assess the efficacy of varlitinib (300 mg twice daily in a 21-day cycle) plus capecitabine (1,000 mg/m^2 twice daily for 2 weeks followed by a 7-day rest period) in patients with advanced or metastatic BTC.
Primary Objective: • To assess the efficacy of varlitinib plus capecitabine in patients with advanced or metastatic biliary tract cancer who progressed on first line of systemic therapy as measured by Objective Response Rate (ORR) based on RECIST v1.1.
Secondary Objectives: • To evaluate the efficacy of varlitinib plus capecitabine, as measured by duration of confirmed response (DoR), progression-free survival (PFS), overall survival (OS) and disease control rate (DCR) • To assess the safety and tolerability of varlitinib when combined with capecitabine
A phase 2A, single arm, multicentre study of varlitinib plus capecitabine in Chinese patients with advanced or metastatic biliary tract cancer who progressed on at least 1 line of systemic therapy.
The Study duration is divided into 3 different stages.
• Have histologically or cytologically confirmed advanced (unresectable) or metastatic BTC, including intrahepatic or extrahepatic CCA, gallbladder cancer and carcinoma of Ampulla of Vater. […]

[11] = test system: treatment naïve advanced or metastatic biliary tract cancer (BTC); type: in vivo; settings: for Median progression-free survival (PFS): at data cut-off
Protocol: The primary objectives for the phase Ib study are to determine the maximum tolerated dose (MTD) and to characterize the safety profile of varlitinib when given with gem/cis. Secondary objectives include evaluation of preliminary efficacy of the study regimen and to evaluate the pharmacokinetics of varlitinib, and any circulating metabolites. A modified 3+3+3 escalation design was used, with 2 varlitinib dose levels (200 and 300 mg twice daily) combined with cisplatin (25 mg/m^2, IV for 2 hours), followed by Gemcitabine (1000 mg/m^2, 30-minute infusion) on Day 1 and Day 8 in a 3 weeks cycle.

gastric tumours = settings: 500 mg orally BID monotherapy 28 days, gastric tumours co-expressing EGFR and HER2 or HER2 amplified, cited from earlier work
[12] = test system: advanced or metastatic biliary tract cancer; settings: capecitabine monotherapy, similar populations; cited from earlier work
[13] = after treatment cycle 6, Varlitinib 400 mg bi-daily monotherapy
[14] = Cohort of 200 mg BID, with gem/cis
[15] = Cohort of 300 mg BID, with gem/cis

## C[C@@H]1COC(Nc2ccc3ncnc(Nc4ccc(OCc5nccs5)c(Cl)c4)c3c2)=N1 [Varlitinib, (R)—N4-[3-Chloro-4-(thiazol-2-ylmethoxy)-phenyl]-N6-(4-methyl-4,5,-dihydro-oxazol-2-yl)-quinazoline-4,6-diamine]
[1]
  Therapeutic activity of combination versus either entity alone: more therapeutic activity than either entity alone
cholangiocarcinoma; one patient, within one month of initiating Varlitinib
  Reduction in CA19-9: 90%
cholangiocarcinoma; second line Varlitinib monotherapy, cholangiocarcinoma patients
  CA19-9 levels: significant reduction
[2]; [13]
  Decrease in size of liver tumours: up to 23%
  Tumour marker CA 19-9 after treatment: ~250 U/ml
[2]; level from which the marker fell
  Tumour marker CA 19-9, starting level: ~900 U/ml
[3]; 6 cycles with chemo then monotherapy
  Duration of partial remission: 24 weeks
[3]; end of cycle 6, Varlitinib 400 mg BID with cisplatin 80 mg/m^2 and capecitabine 1000 mg/m2 BID
  Reduction in tumour size: 85.77%
[3]; end of cycle 8, varlitinib monotherapy after cycle 6
  Reduction in tumour size: 87%
[3]; end of cycle 10, on varlitinib monotherapy
  Disease status by RECIST: disease progression
[4]
  Tolerability: well tolerated
[4]; after treatment cycle 6
  Response: 85.77%
[4]; first two treatment cycles
  Dose limiting toxicity: No dose limiting toxicity was observed
[5]
  Response: 4%
[6]
  Current disease status: stable disease
[6]; C2, first line
  Tumor reduction, first response: 16%
[6]; C4, first line
  Tumor reduction, last response: 13%
[7]
  Patient status: partial response
  Reduction in tumor size: 50%
[8]; Varlitinib 400 mg BID with cisplatin/5-FU, 28-day cycle
  Cycle of treatment in which first response was observed: 2 cycle
[8]; Varlitinib monotherapy after cycle 6
  Cycle in which progressive disease was observed: 16 cycle
[8]; varlitinib monotherapy after 6 cycles of varlitinib with cisplatin/5-FU
  Disease control: remarkable disease control
[9]; 9 cycles Varlitinib 400 mg BID with mFOLFOX6, then 9 cycles monotherapy
  Reduction in tumor size, best response from baseline: 53%
[9]
  Tumor assessment status: partial response
[10]
  Safety and tolerability: safe and tolerated without any unexpected adverse events
[11]; 200 mg cohort, with gem/cis
  Median progression-free survival (PFS): 238 days
[11]; 300 mg cohort, with gem/cis
  Median progression-free survival (PFS): not reached
[11]; All, with gem/cis
  DCR overview: Complete Response, patients: 0
  DCR overview: Non-responders, patients: 4
  DCR overview: PD, patients: 0
  DCR overview: Partial Response, patients: 7
  DCR overview: Responders, patients: 17
  DCR overview: Responders, share of evaluable patients: (81.0%)
  DCR overview: SD (≤12 weeks), patients: 2
  DCR overview: SD (≥12 weeks), patients: 10
  ORR overview: Complete Response, patients: 0
  ORR overview: PD, patients: 0
  ORR overview: Partial Response, patients: 7
  ORR overview: Partial Response, share of evaluable patients: (33.3%)
  ORR overview: SD (≥6 weeks), patients: 12
[11]; [14]
  DCR overview: Complete Response, patients: 0
  DCR overview: Non-responders, patients: 1
  DCR overview: PD, patients: 0
  DCR overview: Partial Response, patients: 4
  DCR overview: Responders, patients: 10
  DCR overview: Responders, share of evaluable patients: (90.9%)
  DCR overview: SD (≤12 weeks), patients: 1
  DCR overview: SD (≥12 weeks), patients: 6
  ORR overview: Complete Response, patients: 0
  ORR overview: PD, patients: 0
  ORR overview: Partial Response, patients: 4
  ORR overview: Partial Response, share of evaluable patients: (36.4%)
  ORR overview: SD (≥6 weeks), patients: 7
[11]; [15]
  DCR overview: Complete Response, patients: 0
  DCR overview: Non-responders, patients: 3
  DCR overview: PD, patients: 0
  DCR overview: Partial Response, patients: 3
  DCR overview: Responders, patients: 7
  DCR overview: Responders, share of evaluable patients: (70.0%)
  DCR overview: SD (≤12 weeks), patients: 1
  DCR overview: SD (≥12 weeks), patients: 4
  ORR overview: Complete Response, patients: 0
  ORR overview: PD, patients: 0
  ORR overview: Partial Response, patients: 3
  ORR overview: Partial Response, share of evaluable patients: (30%)
  ORR overview: SD (≥6 weeks), patients: 5
[11]; both 200 mg and 300 mg cohorts, Varlitinib plus gem/cis
  Antitumor activity: Antitumor activity was observed
[11]; both cohorts, with gem/cis
  Patients with partial response per RECIST v1.1: 7 patients
  Patients with stable disease more than 12 weeks: 10 patients
[11]; human, in vivo
  All-grade adverse event: anaemia: 33%
  All-grade adverse event: decreased appetite: 38%
  All-grade adverse event: diarrhoea: 38%
  All-grade adverse event: nausea: 38%
  All-grade adverse event: neutrophil decreased: 38%
  All-grade adverse event: platelet decreased: 52%
  Dose limiting toxicities observed, number of patients: 3 patients
  Grade ≥3 adverse event: anaemia: 19%
  Grade ≥3 adverse event: neutrophil decreased: 33%
  Grade ≥3 adverse event: platelet decreased: 29%
[11]; with gem/cis
  Disease control rate: 81.0%
Gastric tumours; biopsies before/after
  Signs of clinical activity: signalling pathways responsible for cell proliferation: downregulation of signalling pathways responsible for cell proliferation
Gastric tumours
  Signs of clinical activity: cell survival and cell proliferation in gastric tumours: reduction in cell survival and cell proliferation

## CCCCCOC(=O)Nc1nc(=O)n([C@@H]2O[C@H](C)[C@@H](O)[C@H]2O)cc1F [capecitabine]
[12]
  Historical response rate, ORR: 6-8%
